Reference: article PMC11375702, “Early Preclinical Studies of Ergosterol Peroxide and Biological Evaluation of Its Derivatives” (ACS Omega, 2024)
≈ marks a conversion by molar mass, not a printed value. Like-named read-outs stand apart in the source and are kept apart here.

How the values were obtained:
[1] = test system: SUM149; assay: CellTiter-Glo 72 h cytotoxicity assay, SUM149; assay type: cell-based; conditions: Homo sapiens; for EC50: SUM149, CTG assay, 72 h; for IC50: calculated from SUM149 EC50
Description: (§1) First, topological polar surface area (tPSA), a widely used molecular descriptor that provides insight into compound absorption and membrane penetration, was theoretically calculated for these compounds along with the estimated c log P (partition coefficient) or log P to further assess their global therapeutic potential.[18],[19] Lipophilicity, a measurable and predictable physical property, can provide practical guidance in designing compounds with improved molecular properties.[20] The tPSA sums the contribution of the surface area of polar atoms, enabling us to determine whether the compounds are more likely to be cell membrane permeable. The aqueous solubility was measured by ultraviolet/visible (UV/vis) spectroscopy.[21] […] EP shares an improved cLogP, but still relatively high from a desirable drug candidate (2.5–3.5). […] Compound 4 has a higher c log P, while compounds 5–10 have lower c log P values. To determine LiPE (lipophilicity efficiency), the following formula was used: LiPE = pIC50 – log P, according to established methods.[22],[23] […] The obtained EC50 values for the newly generated EP derivatives were within a similar range for other derivatives previously described against TNBC models.[17]
(§2) The following stable human cell lines were utilized for this study: SUM149 and MDA-MB-231 (breast cancer models) and BJ (human normal fibroblast, foreskin). Cells were purchased from BioIVT or the American Type Culture Collection (ATCC). Cells were cultured in F-12-Nutrient Mixture (SUM149), DMEM (MDA-MB-231), or EMEM (BJ) medium supplemented with 10% fetal bovine serum (Sigma-Aldrich, St. Louis, MO) and 2 mmol of L-glutamine, at 37 °C in a humidified 5% CO2 atmosphere (no antibiotics) as indicated by the manufacturer. Cell cultures were grown to 80–90% confluence before use, except where otherwise specified. Our cell lines are authenticated every 3 months using the CellCheck service (Idexx BioResearch, Westbrook, ME). Cells were tested for mycoplasma prior to use (MycoAlert detection Kit Lonza LT07–318) and discarded if they tested positive. A cell proliferation assay was performed using the CellTiter-Glo (Promega Corp., Madison, WI) luminescent cell viability assay kit. Cells were detached with trypsin, counted, and seeded in white polystyrene flat-bottom sterile 96-well tissue culture-treated plates (catalog no. 3917, Corning, Glendale, Arizona) and incubated overnight at 37 °C. MDA-MB231, SUM149, and BJ cells were seeded into 96-well plates at concentrations experimentally determined (0.4 × 10^4, 0.25 × 10^4, and 0.3 × 10^4 cells per well, respectively) to ensure logarithmic growth during the duration of the experiment and to prevent adverse effects on cell growth by DMSO exposure. The plates were incubated for 12 h before treatment. Stock solutions of test compounds (10 mM in DMSO) in nine 3-fold serial dilutions were dispensed. The final concentration of DMSO was 0.3% (v/v) in each well. The positive control used was staurosporine (10 μM) as the kill-all control, and the negative control used is DMSO as we have published. Staurosporine is a potent alkaloid inducer of various cell death modalities but primarily apoptosis, making it a reliable positive control for viability assays. The plates were incubated for 72 h and then quenched with CTG at 50 μL per well at RT. Plates were then incubated at RT for 20 min and centrifuged at 1000 rpm for 1 min. Luminescence was read on a CLARIOstar Plus plate reader (BMG LabTech, Ortenberg, Germany).
Three or four technical replicates were conducted for each experimental condition, and a minimum of three independent experiments were conducted for each assay. In vitro ADME values were expressed as mean ± standard deviation (SD) of at least three independent experiments. One-way analysis of variance (ANOVA) was adopted for comparisons among groups using the GraphPad Prism 10.2.3 (GraphPad Software, San Diego, CA). A difference of P < 0.05 was considered as statistically significant. […]

[2] = Aqueous solubility by UV/vis absorbance; assay type: physicochemical; conditions: kinetic from dmso stock
Description: as §1
Briefly, clear 96-well PS plates with lids (catalog no. 3903, Corning, Glendale, Arizona) were used for spectrophotometric determination of absorbance with a CLARIOstar Plus plate reader (BMG LabTech, Ortenberg, Germany) to determine at which concentration the compounds are precipitating out of solution. Decrease in transmittance of 2% or higher was considered significant. Compound solutions of 10 mM in DMSO were prepared followed by a serial dilution series, which were vortexed to ensure the solutions were homogeneous. The 96-well plate was then prepared with distilled H2O and allowed to equilibrate for 1.5 h. Then, the plate was placed in a CLARIOstar Plus plate reader or Cytation C10 (Biotek, Agilent) and set to detect absorbance at 220–700 nm. Each well was read individually. Three replicate assays were conducted for each experimental condition, and a minimum of three independent experiments were conducted.

[3] = Metabolic stability in human liver microsomes; assay type: in vitro ADME; conditions: both sexes, pooled liver microsomes, read-out: metabolic stability (human) t1/2 (converted)
Description: Human and/or mouse microsomal degradation was determined using multiple time points to monitor the rate of disappearance of the parent compound during incubation following the method described by Di et al.[51],[52] […] The metabolic stability was evaluated via the half-life from the least-squares fit of the multiple time points based on first-order kinetics. Waters ACQUITY-TOQ UPLC-MS-MS-UV system was used to analyze the samples as established in various MS core facilities.[51],[52]

[4] = test system: MDA-MB-231; assay: CellTiter-Glo 72 h cytotoxicity assay, MDA-MB-231; assay type: cell-based; conditions: Homo sapiens, CTG assay, read-out: MDA-MB231 (EC50)
Description: as §2
Three or four technical replicates were conducted for each experimental condition, and a minimum of three independent experiments were conducted for each assay. In vitro ADME values were expressed as mean ± standard deviation (SD) of at least three independent experiments. One-way analysis of variance (ANOVA) was adopted for comparisons among groups using the GraphPad Prism 10.2.3 (GraphPad Software, San Diego, CA). A difference of P < 0.05 was considered as statistically significant. Data are expressed as mean ± SEM. For CTG, the mean luminescence of each experimental treatment group was normalized as a percentage of the mean intensity of untreated controls (DMSO as vehicle). EC50 values were calculated from dose–response curve fitting via nonlinear regression using GraphPad Prism 10.2.3 (GraphPad Software, San Diego, CA). A therapeutic index (TI) between normal and tumor cell lines can be determined (EC50 non-neoplastic cell line BJ)/(EC50 cancer cell line). In vivo studies were analyzed using mixed-effects regression models to compare the changes in tumor volume over time by treatment group. Tumor volume reduction was compared using ANOVA with repeated measures, and all data was considered significant when P < 0.05.

## CC(C)[C@@H](C)/C=C/[C@@H](C)[C@H]1CC[C@@H]2[C@]1(C)CC[C@H]1[C@]23C=C[C@]2(C[C@@H](O)CC[C@]12C)OO3 [Compound 2, Ergosterol peroxide]
[1]
  EC50: 6 µM
  IC50: 6.03 µM
[2]; distilled water, distilled H2O, UV/vis, read-out: solubility limit
  solubility at […]: 21.4 µg/mL (≈ 50 µM)
[3]
  half-life: 2.74 h
[4]
  EC50: 18 µM

## CC(C)[C@@H](C)/C=C/[C@@H](C)[C@H]1CC[C@@H]2[C@]1(C)CC[C@H]1[C@]23C=C[C@]2(CC(=O)CC[C@]12C)OO3 [Compound 3]
[1]
  EC50: 5 µM
  IC50: 5.01 µM
[2]; water
  solubility at […]: 10.7 µg/mL (≈ 25 µM)
[3]
  half-life: 0.83 h
[4]
  EC50: 7 µM
